Test results reported in patent publication US7067489B2, “Hematopoietic stimulation” (Point Therapeutics, Inc., priority 1998, dated 2006).

Assays:
[1] = tested on: BALB/c mice; assay: Stimulation of hematopoiesis in the spleen of normal mice (splenocyte colony assay); format: in vivo; conditions: twice daily for 5 days, subcutaneous injection or oral gavage
Method: On the sixth day the animals were sacrificed and their spleens were excised using sterile procedures. The spleens were disrupted to produce single cell suspensions which were subsequently treated with a solution of Tris ammonium chloride (pH 7.2) to lyse erythrocytes. The resulting splenocyte populations were in a hemocytometer and resuspended at […] in Iscove's Modified Eagles medium (IMDM) supplemented with 2% heat inactivated fetal calf serum. 0.3 mL of each splenocyte solution was added to 3 mL of Methocult™GF M3434 (Stem Cell Technologies, Vancouver, BC, Canada), a methylcellulose medium containing recombinant cytokines used for colony assays of murine progenitor cells. The medium was vigorously mixed and then 1.1 mL of the mixture was placed in duplicate onto sterile 35 mm diameter culture dishes, resulting in 5×10^5 splenocytes/plate. The plated cells were incubated at 37° C. under humidified conditions in 95% air/5% CO2 for 7 days. CFU-E were enumerated as per the manufacturers specifications after 2 days, while BFU-E, CFU-GM and CFU-GEMM were enumerated after 7 days. For each mouse, the absolute CFU/spleen were calculated using the total splenocyte count determined in the hemocytometer. The data shown in FIG. 9 represents the mean±SD CFU/spleen from 3 mice in each dosing group.

[2] = tested on: cyclophosphamide treated mice; assay: Regeneration of neutrophils in cyclophosphamide-treated mice; format: in vivo; conditions: for neutrophil recovery versus saline treated mice: 5 days; for ANC after treatment was stopped: count on Day 13; for Day on which normal levels of absolute neutrophil counts (ANC) were reached: saline treated mice Day 7
Method: In these studies, mice were injected intraperitoneally with a sublethal dose of 220 mg/kg cyclophosphamide (Day 1). […] After 72 hours (Day 3) mice were divided into 3 groups. […] G-CSF was used at 0.04 ug/dose (4 μg/kg/day) which is the dose frequently used in published reports studying the G-CSF effects in mice and is also the equivalent dose used in cancer patients. All administrations were performed twice daily (b.i.d.) for 5 consecutive days or as indicated. Blood samples were taken from individual mice on Day 4–8, and in some experiments on Days 13 or 17. At each time pont four or five test animals were sampled. Total and differential white blood cell counts of Gimsa-stained blood smears were performed.

[3] = tested on: human CD34+ cells (primitive hematopoietic progenitor cells) on stromal cell layer; assay: Long-Term Culture (LTC) assay followed by semi-solid colony assay; format: cell-based
Source text: An assay to evaluate the effect of a compound or of growth factors on PHPCs was first described by Dexter (Dexter T. M. et al, J. Cell. Physiol. 91:335–344 (1977)), and combines the Long-Term Culture (LTC) with the semi-solid colony assay. LTC is initiated over a pre-formed stromal cell layer which provides the necessary hematopoietic growth factors. It has been used extensively for the in vitro examination of murine and human hematopoiesis and to evaluate the ability of test compounds to generate LTC-ICs.
For the LTC assays, CD34^+ cells were isolated by positive selection from human bone marrow cells, apheresed peripheral blood or umbilical cord blood using a MAC separation system. To establish a stromal feeder layer, human bone marrow cells were cultured in Myelocult long term culture medium for 2 weeks. […] Medium and PT-100 was exchanged every three days thereafter. At the end of the culture period the culture was assayed for progenitor cells by plating in semi-solid medium (methylcellulose) supplemented with growth factors (Stem Cell Factor, GM-CSF, IL-3 and Erythropoietin).
The total number of myeloid, erythroid, blast forming and multilineage clonogeneic progenitors (colonies CFU-GM, CFU-E, BFU-E and CFU-GEMM, respectively) were determined after 14 days in methylcellulose culture.

[4] = tested on: human bone marrow stromal cells; assay: Production of G-CSF by human bone marrow stromal cells; format: cell-based; conditions: 10^−5 M PT-100, culture media collected on day 1
Method: Mononuclear cells were purified from bone marrow and cultured long-term culture medium, (Stem Cell Technologies, Inc., Vancouver, B.C.) for 2 weeks, with a single feeding of fresh medium after 1 week. […] Culture media were collected on day 1. Supernatants were assayed for human G-CSF using a Quantikine high sensitivity immuno-assay kit (R+D Systems, Minneapolis, Minn.).

[5] = tested on: human bone marrow CD34+ cells (committed progenitor cells); assay: 2 week semi-solid (methylcellulose) colony (CFU) assay; format: cell-based
Source text: Hematopoiesis is sustained by a pool of hematopoietic stem cells (HSCs) that can self-renew and differentiate into hematopoietic progenitor cells (HPCs). HPCs are committed to specific lineages which can be identified based on their colony morphology when grown in semi-solid media in vitro, typically over a 2 week period. The colonies grown in the semi-solid colony assay are functionally defined as colony- or burst-forming units and include BFU-E and CFU-E (cells committed to the erythroid lineage), CFU-GM (cells committed to the granulocytic/monocytic lineage), BFU-MK and CFU-MK (cells committed to the megakaryocyte lineage) and CFU-GEMM (multipotent progenitors).

[6] = tested on: human CD34+ cells (primitive hematopoietic progenitor cells) on stromal cell layer; conditions: cited from earlier work
[7] = tested on: human bone marrow CD34+ cells (committed progenitor cells); conditions: stated as previously shown; cited from earlier work

With `CC(C)[C@H](N)C(=O)N1CCC[C@H]1B(O)O` [PT-100, valine-prolineboronic acid] the “hematopoiesis in spleen (CFU/spleen: CFU-E, BFU-E, CFU-GM, CFU-GEMM)” value [1] was “stimulated hematopoiesis for all progenitor colony types tested”, the “neutrophil recovery over saline” value ([2]; 0.1 μg/b.i.d. oral gavage, 5 consecutive days from Day 3) was “did not significantly enhance neutrophil recovery over saline” and the “neutrophil recovery versus saline treated mice” value ([2]; 1 μg/b.i.d. s.c.) was “did not show much effect”. The “ANC after treatment was stopped” value ([2]; 2 μg/b.i.d. by gavage for 5 days) was “decreased to normal counts by Day 13”, the “neutrophil regeneration during the treatment period, PT-100 versus G-CSF” value ([2]; 2 μg/b.i.d. by gavage, 5 consecutive days from Day 3) was “stimulated neutrophil regeneration to a similar level” and the “Day on which normal levels of absolute neutrophil counts (ANC) were reached” value ([2]; 2 μg/b.i.d. oral gavage) was 5 days. For the same molecule, the “Day on which normal levels of absolute neutrophil counts (ANC) were reached” value ([2]; 5 μg/b.i.d. oral gavage) was 5 days, the “neutrophil recovery versus saline treated mice” value ([2]; 5 μg/b.i.d. s.c.) was “accelerated” and the “neutrophil recovery versus saline treated mice” value ([2]; 10 μg/b.i.d. s.c.) was “accelerated”. The “neutrophil recovery versus saline treated mice” value ([2]; 20 μg/b.i.d. s.c.) was “accelerated”, the “rate of neutrophil recovery with additional administration for 2 or 3 days” value ([2]; gavage b.i.d. for 2 or 3 days starting Day 3) was “increased the rate of recovery even further” and the “reconstitution of neutrophils after one day of administration” value ([2]; gavage b.i.d. for 1 day starting Day 3 (5, 2 or 1 μg/b.i.d.)) was “accelerated reconstitution of neutrophils over saline treated animals”. The “rate of neutrophil recovery or ANC with 4 or 5 days versus 3 day administration” value ([2]; gavage b.i.d., total of 4 or 5 days) was “does not significantly increase”, the “effect of additional administration on Days 5, 6 and 7 on ANC” value ([2]; oral gavage b.i.d.) was “caused a further increase in ANC” and the “neutrophil recovery, twice daily versus once per day administration” value ([2]; s.c., five day period from Day 3, both doses tested) was “faster rate of neutrophil recovery to higher neutrophil levels”. For the same molecule, the “number of 4 and 5 week LTC-ICs” value ([3]; CD34+ cells from apheresed peripheral blood or umbilical cord blood, 30 days on irradiated stromal cells) was “increased”, the “growth of very early progenitor cells in LTC assays” value ([3]; all three cell sources (bone marrow, apheresed peripheral blood, umbilical cord blood), LTC-ICs at 4, 5 and 6 weeks) was “significantly increased” and the “number of clonogeneic progenitors able to form colonies in semi-solid medium” value ([3]; human bone marrow culture, 4 week LTC assay) was “increased, in a dose dependent manner”. The “production of G-CSF by cultured stromal cells” value [4] was “stimulates production of G-CSF”, the “differentiation of committed progenitor cells (CFU-E, CFU-GM, CFU-GEMM, BFU-E colonies)” value ([5]; human bone marrow CD34+ cells, 4 h pre-incubation, 14 days in methylcellulose with sub-optimal growth factors) was “did not stimulate differentiation” and the “generation of CFUs in the 2 week semi-solid assay” value ([5]; human bone marrow, apheresed peripheral blood or umbilical cord blood cells) was “did not stimulate the generation of CFUs”.

B1: G-CSF: granulocyte colony stimulating factor, currently used to accelerate neutrophil recovery in cancer patients undergoing chemotherapy (protein, UniProt P09919 31-207, looked up)
Granulocyte …: TPLGPASSLPQSFLLKCLEQVRKIQGDGAALQEKLVSECATYKLCHPEELVLLGHSLGIPWAPLSSCPSQALQLAGCLSQLHSGLFLYQGLLQALEGISPELGPTLDTLQLDVADFATTIWQQMEELGMAPALQPTQGAMPAFASAFQRRAGGVLVASHLQSFLEVSYRVLRHLAQP
For B1, the “ANC after treatment was stopped” value ([2]; 0.04 μg/b.i.d. s.c. for 5 days) is given as “decreased to normal counts by Day 13”, the “neutrophil regeneration during the treatment period, PT-100 versus G-CSF” value ([2]; 0.04 μg/b.i.d. subcutaneous injections, 5 consecutive days from Day 3) is given as “stimulated neutrophil regeneration to a similar level” and the “effect on growth of early human hematopoietic progenitor cells” value [6] is given as “not affected”. For the same molecule, the “CFU formation in the 2 week semi-solid assay” value [7] was “stimulate CFU formation”.
